Here are results for two substances from patent US20100021480A1, “BIOACTIVE SUBSTANCE-BLOOD PROTEIN CONJUGATE AND STABILIZATION OF A BIOACTIVE SUBSTANCE USING THE SAME” (priority 2005, published 2010).

For one assay, the system named is ICR female mice. Briefly: Blood glucose reducing activity through intraperitoneal glucose tolerance test (IPGTT). The class given is in vivo. The following applies: 10 nmol. As to the method:
Long-acting of the blood glucose reducing effect was tested in this example to determine long-acting of the blood glucose reducing activity of Compound 35 of the present invention. As control samples for determining blood glucose reducing activity and long-acting of the activity, native Exendin-4 was used, and the activity of each peptide sample was measured by intraperitoneal glucose tolerance test (IPGTT).
ICR female mice (6 weeks old, DaehanBioLink, Korea) were employed as test animals, after being adapted in lab for 7 days. Before the test, 8 mice were picked out of each group and blood was collected from tail to measure the glucose concentration in blood using glucometer (Accucheck Sensor, Roche), and then, starved for 15 to 18 hours. […] At each determined time, blood was corrected from caudal vein and the level of glucose therein was measured with glucometer. The experiments for the determination of blood glucose reducing activity and the long-acting of the activity are summarized in Table 5.
The animal test results with respect to the long-acting of blood glucose reducing effect, when Compound 35 of the present invention, and […], were measured through IPGTT, and shown in FIGS. 1 and 2. […]

The target of another assay is activated HSA (Homo sapiens, UniProt P02768). As to the method:
Such binding degree to albumin can be simply qualitatively or quantitatively measured by an in vitro analysis using a simple HPLC.
Human serum albumin (HSA, 1 mM) solution was prepared by dissolving 66.5 mg of the activated HSA prepared in Example 3 in PBS buffer solution (pH 7.2, 1 ml). Stock solutions (1 mM) of bioactive substance Compound 15 (1.8 mg/ml) and Leuprolide (1.2 mg/ml) were respectively prepared by the same method.
The stock solutions prepared in the above method were diluted with PBS buffer so that they had the compositions shown in Table 2 below thereby to prepare sample solutions (100 μl) for determination. Then, each reaction mixture was mixed and slowly shaken in an incubator for 30 min while the temperature condition of 37° C. was kept. After incubation, methanol (150 μl) was added to each sample vial, which was then voltexed for 10 min, to precipitate HSA. The precipitated albumin was spun down by centrifugation (12,000 rpm, 10° C., 10 min.) and the supernatants (50 μl) were taken and analyzed using HPLC under the same conditions.
The degree of conjugation was examined with increasing the concentration of the bioactive substance compounds at the fixed concentration of albumin.

Read-outs that look alike come from different tables or passages of the source.

Chain of activated HSA (P02768 25-609): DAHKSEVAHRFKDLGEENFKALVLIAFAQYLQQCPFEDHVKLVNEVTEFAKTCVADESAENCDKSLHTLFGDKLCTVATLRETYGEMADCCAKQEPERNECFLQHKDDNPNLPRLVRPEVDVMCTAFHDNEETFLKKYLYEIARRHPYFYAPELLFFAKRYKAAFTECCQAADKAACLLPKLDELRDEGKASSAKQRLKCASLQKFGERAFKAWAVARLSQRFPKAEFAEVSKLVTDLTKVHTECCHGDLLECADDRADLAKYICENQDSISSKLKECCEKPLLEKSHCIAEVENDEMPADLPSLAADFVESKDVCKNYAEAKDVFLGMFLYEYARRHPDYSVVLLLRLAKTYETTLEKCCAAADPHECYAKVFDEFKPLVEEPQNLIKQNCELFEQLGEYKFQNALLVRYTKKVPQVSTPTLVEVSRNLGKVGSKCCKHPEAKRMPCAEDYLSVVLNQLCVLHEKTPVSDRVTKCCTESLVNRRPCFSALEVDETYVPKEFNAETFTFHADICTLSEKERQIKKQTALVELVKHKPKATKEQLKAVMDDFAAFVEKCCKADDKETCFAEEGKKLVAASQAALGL

With Exendin-4, the “blood glucose reducing curve in IPGTT versus saline control” value in the assay with ICR female mice (subcutaneous once 10 hours before intraperitoneal glucose (2 g/kg)) and in the assay on ICR female mice (subcutaneous once 24 hours before intraperitoneal glucose (2 g/kg)) was “no significant difference” each time.
On to “Leuprolide-GSG-Lys-[ε-AEEA-CO—(CH2)2—SH]—NH2.2TFA [Compound 15]”, for which the “PA 20.6 min (peak area)” value is recorded as 0 on activated HSA (Compound 15/albumin 5/50 (μl of 1 mM stocks), PBS, 37° C., 30 min, supernatant HPLC); 4.4M at activated HSA (Compound 15/albumin 10/0, Compound 15 only, M: million); 0 on activated HSA (Compound 15/albumin 10/50 (μl of 1 mM stocks), PBS, 37° C., 30 min, supernatant HPLC); 1.3M at activated HSA (Compound 15/albumin 20/50 (μl of 1 mM stocks), PBS, 37° C., 30 min, supernatant HPLC, M: million); 9.8M on activated HSA (Compound 15/albumin 40/50 (μl of 1 mM stocks), PBS, 37° C., 30 min, supernatant HPLC, M: million); 17.9M on activated HSA (Compound 15/albumin 50/40 (μl of 1 mM stocks), PBS, 37° C., 30 min, supernatant HPLC, M: million). Moreover, the “PA 20.6 min (peak area)” value on activated HSA (Compound 15/albumin 50/50 (μl of 1 mM stocks), PBS, 37° C., 30 min, supernatant HPLC, M: million) is on record as 14.7M. The “PA 20.6 min/4.4M” value was 0 at activated HSA (Compound 15/albumin 5/50, relative to Compound 15 only); 1.0 at activated HSA (Compound 15/albumin 10/0, Compound 15 only); 0 at activated HSA (Compound 15/albumin 10/50, relative to Compound 15 only); 0.3 on activated HSA (Compound 15/albumin 20/50, relative to Compound 15 only); 2.2 at activated HSA (Compound 15/albumin 40/50, relative to Compound 15 only); 4.0 at activated HSA (Compound 15/albumin 50/40, relative to Compound 15 only). In addition, the “PA 20.6 min/4.4M” value at activated HSA (Compound 15/albumin 50/50, relative to Compound 15 only) was 3.3. For the same substance, at activated HSA (binding test of albumin and Compound 15), the “binding of Compound 15 to albumin” value is “bound”.
